Holding throughout (assay): Kinase assay, binding constants (Kd), kinase-tagged T7 phage, qPCR
For orientation: In qPCR the cycle at which signal appears reflects the starting amount.

One test deals with FGFR4 (Homo sapiens (Human), UniProt P22455). The protocol: (§1) Kinase-tagged T7 phage strains were prepared in an E. coli host derived from the BL21 strain. E. coli were grown to log-phase and infected with T7 phage and incubated with shaking at 32° C. until lysis. The lysates were centrifuged and filtered to remove cell debris. Streptavidin-coated magnetic beads were treated with biotinylated small molecule ligands for 30 minutes at room temperature to generate affinity resins for kinase assays. The liganded beads were blocked with excess biotin and washed with blocking buffer SeaBlock (Pierce), […], 1 mM DTT to remove unbound ligand and to reduce non-specific binding.
(§2) Test compounds were prepared as 111λ stocks in 10000 DMS0. Kds were determined using an 11-point 3-fold compound dilution series with three DMSO control points. […] The compounds were then diluted directly into the assays such that the final concentration of DMSO was 0.9%. All reactions performed in polypropylene 384-well plate. Each was a final volume of 0.02 ml. […] The beads were then re-suspended in elution buffer (1×PBS, 0.05% Tween […] non-biotinylated affinity ligand) and incubated at room temperature with shaking for 30 minutes. The kinase concentration in the eluates was measured by qPCR.
(§3) Binding constants were calculated with a standard dose-response curve using the Hill equation: […]
(§4) The Hill Slope was set to −1. Curves were fitted using a non-linear least square fit with the Levenberg-Marquardt algorithm.

The next test has as its target FGFR2 (Homo sapiens (Human), UniProt P21802). As to the method: as §1, §2, §3, §4
The target in another test is FGFR1 (Homo sapiens (Human), UniProt P11362). The protocol: as §1, §2, §3, §4
A further test deals with FGFR3 (Homo sapiens (Human), UniProt P22607). The protocol:
as §1, §2, §3, §4

The target in the next test is FGFR3 (V555M) (Homo sapiens (Human), UniProt P22607, V555M). To be noted: V555M mutant. As to the method:
as §1, §2, §3, §4

FGFR2, sequence (P21802 22-821): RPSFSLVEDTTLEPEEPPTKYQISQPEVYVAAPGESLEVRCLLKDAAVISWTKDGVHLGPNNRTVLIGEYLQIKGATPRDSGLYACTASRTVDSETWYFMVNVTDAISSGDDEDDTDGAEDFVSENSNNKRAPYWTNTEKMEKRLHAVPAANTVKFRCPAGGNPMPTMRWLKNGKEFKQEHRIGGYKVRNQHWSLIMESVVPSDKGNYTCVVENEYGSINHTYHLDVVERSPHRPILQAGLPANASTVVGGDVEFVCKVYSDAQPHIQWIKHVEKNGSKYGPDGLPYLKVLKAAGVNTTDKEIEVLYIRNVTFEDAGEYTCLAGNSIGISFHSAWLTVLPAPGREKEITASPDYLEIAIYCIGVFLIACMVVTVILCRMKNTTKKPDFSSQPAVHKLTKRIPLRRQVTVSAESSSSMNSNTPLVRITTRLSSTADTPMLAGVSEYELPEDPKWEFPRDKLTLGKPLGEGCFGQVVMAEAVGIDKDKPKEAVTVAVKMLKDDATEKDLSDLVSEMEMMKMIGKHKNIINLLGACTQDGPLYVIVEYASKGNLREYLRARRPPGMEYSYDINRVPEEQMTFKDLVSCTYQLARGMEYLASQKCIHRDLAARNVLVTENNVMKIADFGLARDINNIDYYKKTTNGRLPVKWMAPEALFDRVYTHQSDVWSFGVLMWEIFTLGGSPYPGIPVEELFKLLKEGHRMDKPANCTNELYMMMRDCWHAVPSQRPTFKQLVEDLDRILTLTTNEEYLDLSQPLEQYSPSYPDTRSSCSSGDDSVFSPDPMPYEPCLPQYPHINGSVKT
FGFR3, sequence (P22607 23-806): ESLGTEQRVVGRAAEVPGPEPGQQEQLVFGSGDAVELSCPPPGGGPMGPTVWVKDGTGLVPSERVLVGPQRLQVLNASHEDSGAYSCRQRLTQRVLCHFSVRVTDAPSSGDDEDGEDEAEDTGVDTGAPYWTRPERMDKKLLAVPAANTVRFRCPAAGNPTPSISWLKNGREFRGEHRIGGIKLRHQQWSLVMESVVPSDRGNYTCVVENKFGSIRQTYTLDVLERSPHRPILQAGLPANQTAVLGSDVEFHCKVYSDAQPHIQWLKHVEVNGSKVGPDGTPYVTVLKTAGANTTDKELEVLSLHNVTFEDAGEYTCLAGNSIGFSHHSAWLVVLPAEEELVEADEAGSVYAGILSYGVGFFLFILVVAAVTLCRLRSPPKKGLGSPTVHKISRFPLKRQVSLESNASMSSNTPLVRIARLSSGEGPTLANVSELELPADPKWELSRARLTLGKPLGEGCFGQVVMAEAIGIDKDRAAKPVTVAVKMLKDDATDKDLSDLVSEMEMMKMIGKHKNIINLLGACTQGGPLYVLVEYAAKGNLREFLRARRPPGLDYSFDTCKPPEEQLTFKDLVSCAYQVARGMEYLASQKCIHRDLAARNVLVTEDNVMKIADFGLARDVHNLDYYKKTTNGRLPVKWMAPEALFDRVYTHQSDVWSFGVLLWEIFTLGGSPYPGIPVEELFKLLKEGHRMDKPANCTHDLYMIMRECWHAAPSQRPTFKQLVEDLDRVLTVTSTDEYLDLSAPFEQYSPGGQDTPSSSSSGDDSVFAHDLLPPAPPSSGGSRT
FGFR3 (V555M), sequence (P22607 23-806 V555M): as the sequence (P22607 23-806) above, with V533M counted along it
FGFR1, sequence (P11362 22-822): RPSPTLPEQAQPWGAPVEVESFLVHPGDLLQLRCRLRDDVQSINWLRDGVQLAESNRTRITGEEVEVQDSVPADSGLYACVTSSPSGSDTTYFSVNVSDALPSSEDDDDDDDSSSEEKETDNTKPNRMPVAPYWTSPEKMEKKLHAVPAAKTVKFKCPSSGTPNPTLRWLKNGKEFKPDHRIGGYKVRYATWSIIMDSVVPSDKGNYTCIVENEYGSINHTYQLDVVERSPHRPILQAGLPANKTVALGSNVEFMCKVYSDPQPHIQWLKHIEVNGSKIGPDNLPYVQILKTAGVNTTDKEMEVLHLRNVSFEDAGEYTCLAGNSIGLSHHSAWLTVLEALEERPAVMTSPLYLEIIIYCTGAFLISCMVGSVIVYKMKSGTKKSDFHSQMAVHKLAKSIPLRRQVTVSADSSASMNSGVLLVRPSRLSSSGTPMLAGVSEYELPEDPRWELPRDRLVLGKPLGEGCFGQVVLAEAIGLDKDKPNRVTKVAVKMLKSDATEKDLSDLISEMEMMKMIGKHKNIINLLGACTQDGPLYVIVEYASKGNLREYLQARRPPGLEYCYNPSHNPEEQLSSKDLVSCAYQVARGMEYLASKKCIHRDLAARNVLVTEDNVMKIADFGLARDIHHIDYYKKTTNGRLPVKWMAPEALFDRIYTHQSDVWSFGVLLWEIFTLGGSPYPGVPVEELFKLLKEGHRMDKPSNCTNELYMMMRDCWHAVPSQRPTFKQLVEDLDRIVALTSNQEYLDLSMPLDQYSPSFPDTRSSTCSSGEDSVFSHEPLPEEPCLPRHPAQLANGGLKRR
FGFR4, sequence (P22455 22-802): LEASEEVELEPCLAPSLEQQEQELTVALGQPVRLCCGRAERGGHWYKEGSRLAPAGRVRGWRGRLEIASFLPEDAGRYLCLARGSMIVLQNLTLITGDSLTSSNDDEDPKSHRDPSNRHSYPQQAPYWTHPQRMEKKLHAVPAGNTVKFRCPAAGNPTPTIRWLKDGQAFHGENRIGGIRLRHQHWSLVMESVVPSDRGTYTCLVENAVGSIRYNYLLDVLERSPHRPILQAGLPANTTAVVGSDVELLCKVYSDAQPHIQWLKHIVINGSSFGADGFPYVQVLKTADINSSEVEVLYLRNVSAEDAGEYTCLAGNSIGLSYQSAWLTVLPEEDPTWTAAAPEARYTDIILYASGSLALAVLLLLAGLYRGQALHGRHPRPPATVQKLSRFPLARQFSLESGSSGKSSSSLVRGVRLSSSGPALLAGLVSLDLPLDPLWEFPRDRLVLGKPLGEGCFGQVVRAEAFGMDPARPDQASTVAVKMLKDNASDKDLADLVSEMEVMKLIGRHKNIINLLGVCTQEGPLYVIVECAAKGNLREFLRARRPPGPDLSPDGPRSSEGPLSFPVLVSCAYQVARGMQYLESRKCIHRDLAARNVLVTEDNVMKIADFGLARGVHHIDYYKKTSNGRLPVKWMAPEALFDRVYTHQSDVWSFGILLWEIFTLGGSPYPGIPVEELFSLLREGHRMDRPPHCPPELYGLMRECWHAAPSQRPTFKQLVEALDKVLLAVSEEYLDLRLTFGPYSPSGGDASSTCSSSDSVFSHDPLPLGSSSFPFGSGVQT

Broadly, the Kd is the free concentration of one partner at which half of the binding sites on the other are occupied at equilibrium, for simple one-to-one binding. Read a high Kd as weaker binding. As to `C[C@@H](Oc1ccc2[nH]nc(-c3ccc(N4CC5(CCNCC5)C4)nc3)c2c1)c1c(Cl)cncc1Cl` [Example 110, 3-[6-(2,7-diazaspiro[3.5]nonan-2-yl)-3-pyridyl]-5-[(1R)-1-(3,5-dichloro-4-pyridyl)ethoxy]-1H-indazole], the Kd on FGFR4, on FGFR2, at FGFR1, on FGFR3 and on FGFR3 (V555M) was 1 to 20 nM in each case.
As to `C[C@@H](Oc1ccc2[nH]nc(-c3cnc(N4CC5(CNC5)C4)nc3)c2c1)c1c(Cl)cncc1Cl` [Example 118, 3-[2-(2,6-diazaspiro[3.3]heptan-2-yl)pyrimidin-5-yl]-5-[(1R)-1-(3,5-dichloro-4-pyridyl)ethoxy]-1H-indazole], the equilibrium dissociation constant (Kd) on FGFR4 was in the range of 1 to 20 nM; on FGFR2, 20 to 100 nM; on FGFR1, 1 to 20 nM; on FGFR3, 1 to 20 nM; at FGFR3 (V555M), 1 to 20 nM.
In the case of `CCOC(=O)N1CCC2(CC1)CN(c1ncc(-c3n[nH]c4ccc(O[C@H](C)c5c(Cl)cncc5Cl)cc34)cn1)C2` [Example 126, ethyl 2-[5-[5-[(1R)-1-(3,5-dichloro-4-pyridyl)ethoxy]-1H-indazol-3-yl]pyrimidin-2-yl]-2,7-diazaspiro[3.5]nonane-7-carboxylate], the Kd on FGFR4 fell in the range of 1 to 20 nM; on FGFR2, 100 to 300 nM; at FGFR1, 100 to 300 nM; on FGFR3, 1 to 20 nM; on FGFR3 (V555M), 1 to 20 nM.
In the case of `C[C@@H](Oc1ccc2[nH]nc(-c3cnc(N4CC5(CCCNC5)C4)nc3)c2c1)c1c(Cl)cncc1Cl` [Example 132, 3-[2-(2,8-diazaspiro[3.5]nonan-2-yl)pyrimidin-5-yl]-5-[(1R)-1-(3,5-dichloro-4-pyridyl)ethoxy]-1H-indazole], the Kd on FGFR4, at FGFR2, at FGFR1, at FGFR3 and at FGFR3 (V555M) was 1 to 20 nM each time.
For the compound `C[C@@H](Oc1ccc2[nH]nc(-c3cnc(N4CC5(CCNCC5)C4)nc3)c2c1)c1c(Cl)cncc1Cl` [Example 133, 3-[2-(2,7-diazaspiro[3.5]nonan-2-yl)pyrimidin-5-yl]-5-[(1R)-1-(3,5-dichloro-4-pyridyl)ethoxy]-1H-indazole], the Kd on FGFR4, on FGFR2, on FGFR1, at FGFR3 and at FGFR3 (V555M) was 1 to 20 nM in each case.
For the compound `C[C@@H](Oc1ccc2[nH]nc(-c3cnc(N4CC5(CCCN(S(C)(=O)=O)C5)C4)nc3)c2c1)c1c(Cl)cncc1Cl` [Example 134, 5-[(1R)-1-(3,5-dichloro-4-pyridyl)ethoxy]-3-[2-(8-methylsulfonyl-2,8-diazaspiro[3.5]nonan-2-yl)pyrimidin-5-yl]-1H-indazole], the equilibrium dissociation constant (Kd) on FGFR4 is 1 to 20 nM; on FGFR2 it was 20 to 100 nM; on FGFR1 it was 20 to 100 nM; on FGFR3, 1 to 20 nM; at FGFR3 (V555M) it was 1 to 20 nM.
Regarding `Cc1cnnc(C)c1[C@H](C)Oc1ccc2[nH]nc(-c3cnc(N4CC5(CCS(=O)(=O)C5)C4)nc3)c2c1` [Example 147, 2-[5-[5-[(1S)-1-(3,5-dimethylpyridazin-4-yl)ethoxy]-1H-indazol-3-yl]pyrimidin-2-yl]-6λ^6-thia-2-azaspiro[3.4]octane 6,6-dioxide], the Kd on FGFR4, on FGFR2, on FGFR1, at FGFR3 and on FGFR3 (V555M) was greater than 300 nM throughout.
For the compound `Cc1cnnc(C)c1[C@H](C)Oc1ccc2[nH]nc(-c3ccc(N4CC5(C4)CN(S(C)(=O)=O)C5)nc3)c2c1` [Example 149, 5-[(1S)-1-(3,5-dimethylpyridazin-4-yl)ethoxy]-3-[6-(2-methylsulfonyl-2,6-diazaspiro[3.3]heptan-6-yl)-3-pyridyl]-1H-indazole], the Kd on FGFR4 is 100 to 300 nM; on FGFR2, 100 to 300 nM; on FGFR1 it was greater than 300 nM; at FGFR3, 20 to 100 nM; at FGFR3 (V555M), 20 to 100 nM.
Take `COC(=O)N1CC2(C1)CN(c1ccc(-c3n[nH]c4ccc(O[C@H](C)c5c(C)cnnc5C)cc34)cn1)C2` [Example 150, methyl 6-[5-[5-[(1R)-1-(3,5-dimethylpyridazin-4-yl)ethoxy]-1H-indazol-3-yl]-2-pyridyl]-2,6-diazaspiro[3.3]heptane-2-carboxylate]: the Kd at FGFR4, on FGFR2, at FGFR1, at FGFR3 and on FGFR3 (V555M) was 1 to 20 nM each time.
Regarding `CCOC(=O)N1CC2(C1)CN(c1ccc(-c3n[nH]c4ccc(O[C@@H](C)c5c(C)cnnc5C)cc34)cn1)C2` [Example 151, ethyl 6-[5-[5-[(1S)-1-(3,5-dimethylpyridazin-4-yl)ethoxy]-1H-indazol-3-yl]-2-pyridyl]-2,6-diazaspiro[3.3]heptane-2-carboxylate], the Kd at FGFR4 was 100 to 300 nM; on FGFR2, 100 to 300 nM; at FGFR1 it was greater than 300 nM; on FGFR3, 20 to 100 nM; at FGFR3 (V555M), 1 to 20 nM.
In the case of `Cc1cnnc(C)c1[C@@H](C)Oc1ccc2[nH]nc(-c3cnc(N4CCC5(CC4)CCS(=O)(=O)C5)nc3)c2c1` [Example 152, 8-[5-[5-[(1R)-1-(3,5-dimethylpyridazin-4-yl)ethoxy]-1H-indazol-3-yl]pyrimidin-2-yl]-2λ^6-thia-8-azaspiro[4.5]decane 2,2-dioxide], the Kd at FGFR4 was in the range of 1 to 20 nM; on FGFR2, 1 to 20 nM; at FGFR1, 20 to 100 nM; at FGFR3 it was 1 to 20 nM; on FGFR3 (V555M), 1 to 20 nM.
Consider `COC(=O)N1CC2(C1)CN(c1ccc(-c3n[nH]c4ccc(O[C@@H](C)c5c(C)cnnc5C)cc34)cn1)C2` [Example 153, methyl 6-[5-[5-[(1S)-1-(3,5-dimethylpyridazin-4-yl)ethoxy]-1H-indazol-3-yl]-2-pyridyl]-2,6-diazaspiro[3.3]heptane-2-carboxylate], for which the Kd at FGFR4 was 100 to 300 nM; at FGFR2, 100 to 300 nM; on FGFR1, greater than 300 nM; at FGFR3, 20 to 100 nM; on FGFR3 (V555M) it was 1 to 20 nM.
With `Cc1cnnc(C)c1[C@H](C)Oc1ccc2[nH]nc(-c3cnc(N4CCC5(CC4)CCS(=O)(=O)C5)nc3)c2c1` [Example 154, 8-[5-[5-[(1S)-1-(3,5-dimethylpyridazin-4-yl)ethoxy]-1H-indazol-3-yl]pyrimidin-2-yl]-2λ^6-thia-8-azaspiro[4.5]decane 2,2-dioxide], the Kd at FGFR4 was 100 to 300 nM; at FGFR2 it was greater than 300 nM; at FGFR1 it was greater than 300 nM; on FGFR3, 100 to 300 nM; at FGFR3 (V555M), 20 to 100 nM.
Take `Cc1cnnc(C)c1[C@H](C)Oc1ccc2[nH]nc(-c3cnc(N4CC5(C4)CN(S(C)(=O)=O)C5)nc3)c2c1` [Example 155, 5-[(1S)-1-(3,5-dimethylpyridazin-4-yl)ethoxy]-3-[2-(2-methylsulfonyl-2,6-diazaspiro[3.3]heptan-6-yl)pyrimidin-5-yl]-1H-indazole]: the Kd on FGFR4 was 100 to 300 nM; at FGFR2, greater than 300 nM; at FGFR1 it was greater than 300 nM; on FGFR3 it was greater than 300 nM; on FGFR3 (V555M), greater than 300 nM.
Regarding `Cc1cnnc(C)c1[C@@H](C)Oc1ccc2[nH]nc(-c3cnc(N4CC5(C4)CN(S(C)(=O)=O)C5)nc3)c2c1` [Example 156, 5-[(1R)-1-(3,5-dimethylpyridazin-4-yl)ethoxy]-3-[2-(2-methylsulfonyl-2,6-diazaspiro[3.3]heptan-6-yl)pyrimidin-5-yl]-1H-indazole], the Kd at FGFR4 lay within 1 to 20 nM; at FGFR2, 20 to 100 nM; at FGFR1 it was 100 to 300 nM; on FGFR3, 1 to 20 nM; at FGFR3 (V555M), 1 to 20 nM.
`C[C@@H](Oc1ccc2[nH]nc(-c3cnc(N4CC5(CCNC5)C4)nc3)c2c1)c1c(Cl)cncc1Cl` [Example 158, 3-[2-(2,7-diazaspiro[3.4]octan-2-yl)pyrimidin-5-yl]-5-[(1R)-1-(3,5-dichloro-4-pyridyl)ethoxy]-1H-indazole]: the Kd on FGFR4 is 1 to 20 nM; on FGFR2 it was 20 to 100 nM; on FGFR1, 20 to 100 nM; on FGFR3, 1 to 20 nM; at FGFR3 (V555M), 1 to 20 nM.
In the case of `C[C@@H](Oc1ccc2[nH]nc(-c3ccc(N4CC5(CCCNC5)C4)nc3)c2c1)c1c(Cl)cncc1Cl` [Example 161, 3-[6-(2,8-diazaspiro[3.5]nonan-2-yl)-3-pyridyl]-5-[(1R)-1-(3,5-dichloro-4-pyridyl)ethoxy]-1H-indazole], the Kd at FGFR4, on FGFR2, on FGFR1, on FGFR3 and on FGFR3 (V555M) was 1 to 20 nM throughout.
Regarding `C[C@@H](Oc1ccc2[nH]nc(-c3ccc(N4CC5(CCNC5)C4)nc3)c2c1)c1c(Cl)cncc1Cl` [Example 164, 3-[6-(2,7-diazaspiro[3.4]octan-2-yl)-3-pyridyl]-5-[(1R)-1-(3,5-dichloro-4-pyridyl)ethoxy]-1H-indazole], the Kd on FGFR4, on FGFR2, on FGFR1, on FGFR3 and at FGFR3 (V555M) was 1 to 20 nM each time.

The values above are taken from patent US20240109865A1, “INDAZOLE COMPOUNDS AS KINASE INHIBITORS” (TYRA BIOSCIENCES, INC., priority 2020, published 2024).
